Source: US11474098B2, “Drug target for preventing pathologic calcium overload in cardiomyocytes and methods of screening for same” (THE TRUSTEES OF COLUMBIA UNIVERSITY IN THE CITY OF NEW YORK, priority 2017, dated 2022)
Where two headings read alike, the source gives them in different places.

Columns and labels:
[1] = test system: CaV1.2 channels
Experimental: Membrane currents from isolated mouse ventricular cardiomyocytes (O'Connell et al. 2007) were measured by the whole-cell patch-clamp method using a MultiClamp 700B amplifier and pCLAMP 10 software (Molecular Devices) as described (Yang et al. 2013). The pipette solution contained (in mM): 40 CsCl, 90 Cs gluconate, 10 BAPTA, 1 MgCl2, 4 Mg-ATP, 2 CaCl2, and 10 HEPES, adjusted to pH 7.2 with CsOH. After the isolated cardiomyocytes were adequately buffered with 10 mM BAPTA in the internal solution, the isolated cardiomyocytes were superfused with (in mM): 140 TEA-CI, 1.8 CaCl2, 1 MgCl2, 10 glucose, and 10 HEPES, adjusted to pH 7.4 with CsOH. For experiments in tsA-201 cells, TEA-CI was reduced to 130 mM, and BaCl2 (10 mM) was used instead of CaCl2. Pipette series resistances were usually <1 MΩ after 60% compensation. Leak currents and capacitance transients were subtracted by a P/4 protocol. Voltages were corrected for the liquid junction potential of −10 mV. To measure Ca^2+ peak currents, the cell membrane potential was held at −50 mV and stepped to +10 mV for 350 ms every 10 seconds. To evaluate the current-voltage (I-V) relationship for Ca^2+ currents, the same protocol was repeated with steps between −50 mV to +50 mV in 10 mV increments. All experiments were performed at room temperature, 22±1° C. The parameters of voltage-dependent activation were obtained using a modified Boltzmann distribution: I(V)=Gmax*(V−Erev)/[1+exp(Vmid−V)/Vc)], where I(V) is peak current, Gmax is maximal conductance, Erev is reversal potential, Vmid is the midpoint, and Vc is the slope factor.
We next determined the sensitivity of CaV1.2 channels containing either transgenic pWT α1C or AID-mutant α1C to PKA modulation.

[2] = test system: CaV1.2 channels; settings: Katchman et al. 2017; cited from earlier work
[3] = test system: CaV1.2 channels; test: Whole-cell Ba2+ currents of adenovirus-infected cultured guinea pig ventricular myocytes; format: cell-based; settings: control cells expressing GFP or YFP-tagged mutant (YWI/AAA) AID peptide; 1 μM forskolin
From the text: Replication deficient adenoviral vectors expressing AID-YFP and AIDmut-YFP were generated using the AdEasy Adenoviral Vector System (Agilent Technologies) according to the manufacturer's instructions. Briefly, sequences for AID-YFP and AIDmut-YFP were PCR-amplified and cloned into pShuttle-CMV vector. After linearization with PmeI, shuttle vectors were electroporated into BJ5183 cells containing pAdEasy-1 viral plasmid. Positive recombinants were amplified, linearized with Pac I, and transfected into AD-293 cells using the calcium phosphate precipitation method. Transfected cells were monitored for development of adenoviral plaques, after which the cells were freeze-thawed and the lysate used to infect a 10-cm dish of 90% confluent HEK293 cells. Viral expansion and purification was carried out as previously described (Colecraft et al. 2002).
Adult guinea pig ventricular myocytes were isolated by enzymatic digestion using a Langendorff perfusion apparatuses, and cultured as previously described (Miriyala et al. 2008). […] Heart cells were infected 2-3 hours after plating with 5-20 μl of adenoviral vector stock (≅10^11-10^12 viral particles/ml).
Whole-cell recordings of virally-infected cultured guinea pig ventricular myocytes were conducted at room temperature as previously described (Miriyala et al. 2008; Xu et al. 2010). […]

[4] = test system: left ventricular contraction in isolated Langendorff-perfused hearts; test: Ex vivo cardiac contractility, Langendorff-perfused hearts with left ventricular balloon; set-up: species or system mouse; settings: for increase in contractility in response to isoproterenol: native CaV1.2 first inhibited with nisoldipine; for increase in cardiac contractility: 200 nM isoproterenol with 300 nM nisoldipine, paced at 400 beats per minute
Experimental: Hearts from these mice are isolated and contractility is assessed by placing a balloon in the left ventricle.
The cannulated hearts were retrogradely perfused on a Langendorff system with a modified Krebs solution (118.5 mM NaCl, 25 mM NaHCO3, 4.7 mM KCl, 1.2 mM MgSO4, 1.2 mM KH2PO4, 11 mM glucose, 1.8 mM Ca^2+). Left ventricular pressure was measured using a balloon catheter connected to an APT-300 pressure transducer, which was connected to a Powerlab digitizer (ADInstruments). […] Peak LV pressure during the 3-minute period was used for the assessment of β-adrenergic agonist stimulation.
We then assessed the role of CaV1.2 modulation in β-adrenergic agonist-induced positive inotropy at the whole organ level by inserting a pressure-transduced balloon into the left ventricle of Langendorff-perfused transgenic mice hearts. This approach enabled measurement of cardiac contractility independent of vascular or systemic effects. Hearts were paced at 400 beats per minute to remove the potentially confounding effect of heart rate variability on contractility (Kushnir et al. 2014). […] By contrast, using the same experimental paradigm in hearts from β-less AID-mutant transgenic mice, the response to isoproterenol was nearly abolished, yielding an average increase in cardiac contractility of only 1.2-fold (FIG. 10H and FIG. 10I).

[5] = test system: isolated cardiomyocytes; test: Fractional shortening (sarcomere length) of field-stimulated isolated cardiomyocytes; format: cell-based, mouse; settings: for increase in fractional shortening: 200 nM isoproterenol with 300 nM nisoldipine, 1-Hz
Experimental: Myocytes were field stimulated at 1-Hz. Percent contraction of sarcomere length was measured using the SarcLen module of Ionoptix and calculated as the difference of shortest sarcomere length during a contraction subtracted from the relaxed sarcomere length, divided by the relaxed sarcomere length, all averaged over at least 8 contractions.
We next exploited the findings that transgenic β-less AID-mutant α1C channels are insensitive to PKA modulation to probe the specific role of CaV1.2 modulation in the positive inotropic effect of β-adrenergic agonists in both isolated cardiomyocytes and in the whole heart. […] By contrast, this response was severely diminished in cardiomyocytes expressing transgenic β-less AID-mutant α1C channels in which isoproterenol produced a relatively meager 25% increase in fractional shortening (FIG. 10B and FIG. 10C).

[6] = test system: phospholamban; test: Immunoblot of phospholamban Ser16 phosphorylation in cardiomyocytes; format: cell-based, mouse; settings: AID-mutant transgenic mice cardiomyocytes; 200 nM isoproterenol
Experimental: Cells were exposed to 200 nM isoproterenol. Protein extracts were size-fractionated on SDS-PAGE, transferred to nitrocellulose and blotted with anti-pSer16 phospho-specific antibody (upper blot), and anti-PLB antibody (lower blot). Representative of three similar experiments.
Cardiac lysates from 6-12-week-old doxycycline-fed transgenic mice were prepared from either whole hearts or isolated ventricular cardiomyocytes (Yang et al. 2013). Immunoprecipitations were performed in modified RIPA buffer consisting of 50 mM Tris HCl; pH 7.4, 150 mM NaCl, Triton X-100 (0.25%), 10 mM EDTA, 10 mM EGTA, 10 μM Calpain inhibitor I, 10 μM Calpain inhibitor II, and Complete Mini-tablets (1 per 7 ml), using anti-FLAG antibody (Sigma) overnight. Immune complexes were collected using protein A (Amersham) for 2 h, followed by extensive washing. Proteins were size-fractionated, transferred to nitrocellulose membranes and probed with anti-FLAG antibody (Sigma), anti-tubulin antibody (Santa Cruz), custom anti-α1C and anti-β2 antibodies (Yang et al. 2013), and phospholamban antibodies (Badrilla). Detection was performed with a CCD camera (Carestream Imaging), and ImageQuant software was used for quantification. […]

Q: Which “inhibition of nisoldipine-resistant basal current” value ([1]; transgenic AID-mutant mice cardiomyocytes) does the source give for `Nc1ncnc2c1nc(Br)n2C1OC2COP(O)(=S)OC2C1O` (stereo not drawn) [Rp-8-Br-cAMPS] here?
A: Its value is “did not inhibit”.

Q: And the “reversal of isoproterenol-mediated up-regulation of endogenous CaV1.2” value [2]?
A: Its value is roughly 96%.

Q: Which “increase in whole-cell current amplitude” value [3] does the source give for `C=C[C@@]1(C)CC(=O)[C@]2(O)[C@@]3(C)[C@@H](O)CCC(C)(C)[C@@H]3[C@H](O)[C@H](OC(C)=O)[C@@]2(C)O1` [forskolin] here?
A: Its value is 4- to 5 fold.

Q: What about the “increase of transgenic pWT α1C Ca2+ currents” value ([1]; transgenic pWT α1C cardiomyocytes, 10 μM forskolin, 300 nM nisoldipine) of the same compound?
A: The value was 1.8+0.1 fold.

Q: Which “increase in contractility in response to isoproterenol” value ([4]; control mice) does the source give for `CC(C)NCC(O)c1ccc(O)c(O)c1` (stereo not drawn) [isoproterenol] here?
A: Its value is 75-200%.

Q: What about the “increase in contractility in response to isoproterenol” value ([4]; mutant mice (CaV1.2 lacking AID)) of the same compound?
A: Its value is 0-25%.

Q: What about the “increase in cardiac contractility” value ([4]; pWT α1C hearts) of the same compound?
A: Its value is 3.3 fold.

Q: What about the “increase in cardiac contractility” value ([4]; β-less AID-mutant transgenic hearts) of the same compound?
A: The value was 1.2 fold.

Q: And the “effect on relaxation of cardiomyocytes” value ([5]; cardiomyocytes from both pWT and AID-mutant α1C transgenic mice)?
A: Its value is “enhanced relaxation”.

Q: What about the “increase in fractional shortening” value ([5]; transgenic pWT α1C cardiomyocytes) of the same compound?
A: The value was 100%.

Q: And the “increase in fractional shortening” value ([5]; β-less AID-mutant α1C cardiomyocytes)?
A: The value was 25%.

Q: And the “phosphorylation of phospholamban at Ser16 in response to isoproterenol” value [6]?
A: Its value is “appropriately phosphorylated”.

Q: And the “shift of Vmid (V0.5) of steady-state activation” value ([1]; GFP-WT β2b cardiomyocytes, 200 nM isoproterenol)?
A: The value was −7.0 mV.

Q: What about the “increase of peak CaV1.2 current” value ([1]; GFP-WT β2 expressing cells, 200 nM isoproterenol) of the same compound?
A: Its value is 1.5±0.1 fold.

Q: And the “shift of Vmid (V0.5) of steady-state activation” value ([1]; GFP-mutant β2b cardiomyocytes, 200 nM isoproterenol)?
A: The value was −7.5 mV.

Q: What about the “increase of peak CaV1.2 current” value ([1]; GFP-mutant β2 expressing cells, 200 nM isoproterenol) of the same compound?
A: The value was 1.6±0.1 fold.

Q: What about the “shift of Vmid in the hyperpolarizing direction” value ([1]; transgenic pWT α1C cardiomyocytes, 200 nM isoproterenol) of the same compound?
A: The value was 4.4 mV.

Q: And the “increase of nisoldipine-insensitive current” value ([1]; transgenic pWT α1C cardiomyocytes, 200 nM isoproterenol, 300 nM nisoldipine)?
A: The value was 1.9±0.1 fold.
